Data taken from patent publication US20220226480A1, “LIPID CONJUGATE PREPARED FROM SCAFFOLD MOIETY” (Integrated Nanotherapeutics Inc., priority 2019, published 2022).

Experiments:
[1] = Particle size and polydispersity of LNP containing pro-drug (dynamic light scattering); assay type: physicochemical; parameters: Size of LNP: unit not given here; conditions: for Particle Diameter (nm) / Polydispersity index (PDI): LNP containing 10 mol % conjugate, primary PC-lipid DMPC
Protocol: (§1) LNPs were prepared by dissolving 1,2-Distearoyl-sn-glycero-3-phosphocholine (DSPC) or 1,2-dimyristoyl-sn-glycero-3-phosphocholine (DMPC), cholesterol and 1,2-Distearoyl-sn-glycero-3-phosphoethanolamine-Poly(ethylene glycol) (PEG-DSPE) in ethanol. DSPC, DMPC and PEG-DSPE were purchased from Avanti Polar Lipids (Alabaster, Ala.), and cholesterol was obtained from Sigma (St Louis, Mo.).
(§2) Drug-lipid-conjugates INT-D034, INT-D035, INT-D045, INT-D046, INT-D047, INT-D048, INT-D049, INT-D050, INT-D051, INT-D053, INT-D060, INT-D061, INT-D062, INT-D063, INT-D083, INT-D085, INT-D086, INT-D088 and INT-D089 (see FIG. 3 and Example 7 for structures) were dissolved in isopropanol or THF. LNP were prepared by rapidly mixing DSPC or DMPC, cholesterol, drug-lipid conjugate, and PEG-DSPE (in molar ratio of 49/40/10/1) with phosphate-buffered saline (PBS) using a cross-junction mixer. Formulations were dialyzed against PBS to remove residual ethanol. In formulation$ with more than 10 mol % drug-lipid conjugates, the amount of phospholipid or cholesterol was reduced accordingly.
(§3) The physiochemical properties of the LNPs prepared as described above were subsequently characterized. Particle size was determined by dynamic light scattering using a Malvern Zetasizer Nano ZS (Malvern, UK) following buffer exchange into phosphate-buffered saline. Number-weighted size and distribution date was used. Lipid concentrations were determined by measuring total cholesterol using the Cholesterol E enzymatic assay kit from Wako Chemicals USA (Richmond, Va.). The morphology of LNP formulations containing LD-DEX was analyzed by cryogenic-transmission electron microscopy (cryoTEM).

[2] = Encapsulation efficiency / incorporation of pro-drug in LNP; assay type: physicochemical; conditions: for Encapsulation Efficiency (%): LNP containing 10 mol % conjugate, primary PC-lipid DMPC; for % Entrapment: LNP formulations containing pro-drugs (10 mol %, FIG. 6A)
Protocol: as §1, §2, §3

[3] = tested on: CD4+ T cells; test: Mixed lymphocyte reaction (MLR) assay, BMDCs with allogeneic CD4+ T cells; assay type: cell-based, mice; conditions: LNP containing 10-99 mol % conjugate; BMDCs treated 48 hours, LPS 24 hours; 5:1 or 10:1 T-to-BMDC ratio; 3 days; flow cytometry
Protocol: Bone marrow derived dendritic cells (BMDCs) from C57Bl/6 male mice were first treated with LNP containing various mol % of the dexamethasone or calcitriol conjugates for 48 hours and then activated by incubation with LIPS for 24 hours. They were then harvested and mixed with CD4+ T cells isolated from Balb/cJ male mice (Jackson Laboratories) at 5:1 or 10:1 T-to-BMDC ratio.
Dexamethasone and calcitriol can tolerize antigen presenting cells (APCs). […] Bone marrow derived dendritic cells (BMDCs) from C57BI/6 male mice (Charles River) were first treated with LNP containing various mol % of dexamethasone or calcitriol conjugates for 48 hours and then activated by incubation with LPS for 24 hours. They were then harvested and mixed with CD4+ T cells isolated from Balb/cl male mice (Jackson Laboratories) at 5:1 or 10:1 T-to-BMDC ratio. The levels of T cells proliferation after 3 days were quantified using flow cytometry.

[4] = Dissociation of pro-drugs from LNP after incubation in human plasma (size exclusion chromatography, UPLC); assay type: in vitro ADME; conditions: 10 mol % in LNP, 2 hours, 37° C. (FIG. 6A)
Description: The release of ricinoleyl-dexamethasone conjugates from LNP was examined using an assay involving human plasma, which contains lipoproteins as a lipid sink for lipid exchanges to occur. The plasma lacked active esterases that may digest the ricinoleyl-dexamethasone conjugates, which would in turn prevent the detection and monitoring of intact conjugates.
LNP formulations containing 10-99 mol % INT-D034, INT-D035, INT-D045, INT-D046, INT-0047, INT-D048 or INT-D049, INT-D050, INT-D051, INT-D053, INT-D083, INT-D085, INT-D086 or INT-D089 (see FIG. 3 and Example 7 for structures) were subjected to incubation in human plasma for 0, 2 or 24 hours at 37° C. at 1.2 mM total lipid. Size exclusion chromatography was performed to separate LNP from lipoproteins (1.5×27 cm Sepharose […] size exclusion column). Thirty fractions of 2 mL were collected and three volumes of isopropanol/methanol (1:1 v/v) were added to each fraction.
Drug-lipid conjugates were quantified by ultra high pressure liquid chromatography (UPLC) using a Water® Acquity™ UPLC system equipped with a photodiode array detector (PDA); Empower™ data acquisition software version 2.0 was used (Waters, USA). […] The method was run over 6 minutes with a column temperature of 55° C. and the analyte was measured by monitoring the PDA detector at a wavelength of 239 nm.

[5] = LNP formulations containing pro-drugs (10 mol %, FIG. 6A)
[6] = LNP, pro-drug concentration 10 %
[7] = LNP, pro-drug concentration 20 %
[8] = LNP, pro-drug concentration 80 %
[9] = LNP, pro-drug concentration 90 %
[10] = LNP, pro-drug concentration 99 %
[11] = LNP, pro-drug concentration 60 %

Compound | Particle Diameter (nm) [1] | Polydispersity index (PDI) [1] | PdI [1, 5] | Size of LNP [1, 5] | PdI [1, 6] | Size (nm) [1, 6] | PdI [1, 7] | Size (nm) [1, 7] | PdI [1, 8] | Size (nm) [1, 8] | PdI [1, 9] | Size (nm) [1, 9] | PdI [1, 10] | Size (nm) [1, 10] | Encapsulation Efficiency (%) [2] | % Entrapment [2] | allogeneic T-cell proliferation [3] | pro-drug remained in LNP [4] | PdI [1, 11] | Size (nm) [1, 11]
CCCCC/C=C\C/C=C\CCCCCCCC(=O)O[C@@H](C/C=C\CCCCCCCCOC(=O)CCC(=O)OCC(=O)[C@@]1(O)[C@H](C)C[C@H]2[C@@H]3CCC4=CC(=O)C=C[C@]4(C)[C@@]3(F)[C@@H](O)C[C@@]21C)CCCCCC [INT-D045, 2-((8S,9R,10S,11S,13S,14S,16R,17R)-9-fluoro-11,17-dihydroxy-10,13,16-trimethyl-3-oxo-6,7,8,9,10,11,12,13,14,15,16,17-dodecahydro-3H-cyclopenta[a]phenanthren-17-yl)-2-oxoethyl ((R,Z)-12-(linoleoyloxy)octadec-9-en-1-yl) succinate] | 68 nm | 0.03 | 0.03 | 64 | 0.076 | 46 nm | 0.073 | 48 nm | 0.033 | 69 nm | 0.054 | 74 nm | 0.045 | 75 nm | 99% | 100% | able to suppress allogeneic T-cell proliferation | – | – | –
CCCCCC[C@H](C/C=C\CCCCCCCCOC(=O)CCC(=O)OCC(=O)[C@@]1(O)[C@H](C)C[C@H]2[C@@H]3CCC4=CC(=O)C=C[C@]4(C)[C@@]3(F)[C@@H](O)C[C@@]21C)OC(C)=O [INT-D047, (R,Z)-12-acetoxyoctadec-9-en-1-yl (2-((8S,9R,10S,11S,13S,14S,16R,17R)-9-fluoro-11,17-dihydroxy-10,13,16-trimethyl-3-oxo-6,7,8,9,10,11,12,13,14,15,16,17-dodecahydro-3H-cyclopenta[a]phenanthren-17-yl)-2-oxoethyl) succinate] | 68 nm | 0.02 | 0.06 | 70 | – | – | – | – | – | – | – | – | – | – | 100% | 100% | – | ~40% | – | –
CCCCC/C=C\C/C=C\CCCCCCCC(=O)OC(CCCCCCCC)C(CCCCCCCC(=O)OCC(=O)[C@@]1(O)[C@H](C)C[C@H]2[C@@H]3CCC4=CC(=O)C=C[C@]4(C)[C@@]3(F)[C@@H](O)C[C@@]21C)OC(=O)CCCCCCC/C=C\C/C=C\CCCCC (stereo partly drawn) [INT-D086, 1-(2-((8S,9R,10S,11S,13S,14S,16R,17R)-9-Fluoro-11,17-dihydroxy-10,13,16-trimethyl-3-oxo-6,7,8,9,10,11,12,13,14,15,16,17-dodecahydro-3H-cyclopenta[a]phenanthren-17-yl)-2-oxoethoxy)-1-oxooctadecane-9,10-diyl (9Z,9′Z,12Z,12′4)-bis(octadeca-9,12-dienoate)] | – | – | 0.08 | 38 | 0.082 | 38 nm | 0.117 | 35 nm | 0.028 | 165 nm | – | – | 0.026 | 160 nm | – | 92% | – | over 90% | 0.036 | 82 nm
CCCCC/C=C\C/C=C\CCCCCCCC(=O)O[C@@H](C/C=C\CCCCCCCC(=O)OCC(=O)[C@@]1(O)[C@H](C)C[C@H]2[C@@H]3CCC4=CC(=O)C=C[C@]4(C)[C@@]3(F)[C@@H](O)C[C@@]21C)CCCCCC [INT-D089, 2-((8S,9R,10S,11S,13S,14S,16R,17R)-9-Fluoro-11,17-dihydroxy-10,13,16-trimethyl-3-oxo-6,7,8,9,10,11,12,13,14,15,16,17-dodecahydro-3H-cyclopenta[a]phenanthren-17-yl)-2-oxoethyl (R,Z)-12-linoleoyloxyoleate] | – | – | 0.07 | 41 | – | – | – | – | – | – | – | – | – | – | – | 100% | – | – | – | –
(1R,3S,2)-3-hydroxy-5-(2-((1R,3aS,7aR,E)-1-((R)-6-hydroxy-6-methylheptan-2-yl)-7a-methyloctahydro-4H-inden-4-ylidene)ethylidene)-4-methylenecyclohexyl (R,Z)-12-acetoxyoctadec-9-enoate and (1S,5R,Z)-5-hydroxy-3-(2-((1R,3aS,7aR,E)-1-((R)-6-hydroxy-6-methylheptan-2-yl)-7a-methyloctahydro-4H-inden-4-ylidene)ethylidene)-2-methylenecyclohexyl(RA-12-acetoxyoctadec-9-enoate [INT-D053] | – | – | – | – | 0.081 | 54 nm | 0.052 | 56 nm | 0.029 | 106 nm | – | – | 0.018 | 98 nm | – | – | able to suppress allogeneic T-cell proliferation | – | – | –
